Measurements reported in PubChem BioAssay (NCI).
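Dose response: 5 concentrations. Exposure: 48 h. Format: 96-well plates. Endpoint: linear interpolation; highest concentration if not reached. GI50 is the concentration that inhibits growth by half. TGI is the concentration that stops growth completely.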

Experiments:
Experiment in all cases: NCI tumour cell line growth inhibition, 48 h
SNB-19 CNS = test system: SNB-19 CNS
HT29 colon = test system: HT29 colon
CAKI-1 renal = test system: CAKI-1 renal
MDA-MB-231 breast = test system: MDA-MB-231 breast
HCC-2998 colon = test system: HCC-2998 colon
SF-295 CNS = test system: SF-295 CNS
OVCAR-4 ovarian = test system: OVCAR-4 ovarian
OVCAR-5 ovarian = test system: OVCAR-5 ovarian
HOP-62 NSCLC = test system: HOP-62 NSCLC
786-0 renal = test system: 786-0 renal
SK-OV-3 ovarian = test system: SK-OV-3 ovarian
A549 NSCLC = test system: A549 NSCLC
UACC-62 melanoma = test system: UACC-62 melanoma
UO-31 renal = test system: UO-31 renal
TK-10 renal = test system: TK-10 renal
DU-145 prostate = test system: DU-145 prostate
K-562 leukemia = test system: K-562 leukemia
SF-268 CNS = test system: SF-268 CNS
HCT-116 colon = test system: HCT-116 colon
HS 578T breast = test system: HS 578T breast
OVCAR-8 ovarian = test system: OVCAR-8 ovarian
MALME-3M melanoma = test system: MALME-3M melanoma
SW-620 colon = test system: SW-620 colon
MOLT-4 leukemia = test system: MOLT-4 leukemia
SK-MEL-5 melanoma = test system: SK-MEL-5 melanoma
T-47D breast = test system: T-47D breast
ACHN renal = test system: ACHN renal
MDA-MB-435 = test system: MDA-MB-435
LOX IMVI melanoma = test system: LOX IMVI melanoma
NCI-H23 lung = test system: NCI-H23 lung
NCI-H522 lung = test system: NCI-H522 lung
SN12C renal = test system: SN12C renal
A498 renal = test system: A498 renal
UACC-257 melanoma = test system: UACC-257 melanoma
HCT-15 colon = test system: HCT-15 colon
HOP-92 NSCLC = test system: HOP-92 NSCLC
RXF 393 renal = test system: RXF 393 renal
U251 CNS = test system: U251 CNS
BT-549 breast = test system: BT-549 breast
SNB-75 CNS = test system: SNB-75 CNS
COLO 205 colon = test system: COLO 205 colon
HL-60(TB) leukemia = test system: HL-60(TB) leukemia
NCI-H226 lung = test system: NCI-H226 lung
NCI-H460 lung = test system: NCI-H460 lung
MCF7 breast = test system: MCF7 breast
SK-MEL-28 melanoma = test system: SK-MEL-28 melanoma
IGROV1 ovarian = test system: IGROV1 ovarian
OVCAR-3 ovarian = test system: OVCAR-3 ovarian
SR leukemia = test system: SR leukemia
KM12 colon = test system: KM12 colon
SF-539 CNS = test system: SF-539 CNS
EKVX NSCLC = test system: EKVX NSCLC
CCRF-CEM leukemia = test system: CCRF-CEM leukemia
PC-3 prostate = test system: PC-3 prostate
M14 melanoma = test system: M14 melanoma
RPMI-8226 leukemia = test system: RPMI-8226 leukemia
NCI/ADR-RES ovarian = test system: NCI/ADR-RES ovarian
SK-MEL-2 melanoma = test system: SK-MEL-2 melanoma

Structure (SMILES): NC(=O)c1ccc(I)c([N+](=O)[O-])c1
- GI50 (SNB-19 CNS): > 100 µM
- TGI (SNB-19 CNS): > 100 µM
- GI50 (HT29 colon): 58 µM
- TGI (HT29 colon): > 100 µM
- GI50 (CAKI-1 renal): 32.2 µM
- TGI (CAKI-1 renal): > 57.4 µM
- GI50 (MDA-MB-231 breast): 49.5 µM
- TGI (MDA-MB-231 breast): > 100 µM
- GI50 (HCC-2998 colon): 50.4 µM
- TGI (HCC-2998 colon): > 100 µM
- GI50 (SF-295 CNS): > 92.7 µM
- TGI (SF-295 CNS): > 100 µM
- GI50 (OVCAR-4 ovarian): 17.2 µM
- TGI (OVCAR-4 ovarian): 32.1 µM
- GI50 (OVCAR-5 ovarian): 25.5 µM
- TGI (OVCAR-5 ovarian): > 68.1 µM
- GI50 (HOP-62 NSCLC): > 100 µM
- TGI (HOP-62 NSCLC): > 100 µM
- GI50 (786-0 renal): > 100 µM
- TGI (786-0 renal): > 100 µM
- GI50 (SK-OV-3 ovarian): > 100 µM
- TGI (SK-OV-3 ovarian): > 100 µM
- GI50 (A549 NSCLC): > 94.5 µM
- TGI (A549 NSCLC): > 100 µM
- GI50 (UACC-62 melanoma): 56.1 µM
- TGI (UACC-62 melanoma): > 100 µM
- GI50 (UO-31 renal): > 100 µM
- TGI (UO-31 renal): > 100 µM
- GI50 (TK-10 renal): > 100 µM
- TGI (TK-10 renal): > 100 µM
- GI50 (DU-145 prostate): > 95.3 µM
- TGI (DU-145 prostate): > 100 µM
- GI50 (K-562 leukemia): 30.2 µM
- TGI (K-562 leukemia): > 79.9 µM
- GI50 (SF-268 CNS): > 100 µM
- TGI (SF-268 CNS): > 100 µM
- GI50 (HCT-116 colon): > 100 µM
- TGI (HCT-116 colon): > 100 µM
- GI50 (HS 578T breast): > 66.2 µM
- TGI (HS 578T breast): > 100 µM
- GI50 (OVCAR-8 ovarian): > 100 µM
- TGI (OVCAR-8 ovarian): > 100 µM
- GI50 (MALME-3M melanoma): 41 µM
- TGI (MALME-3M melanoma): > 72.9 µM
- GI50 (SW-620 colon): > 100 µM
- TGI (SW-620 colon): > 100 µM
- GI50 (MOLT-4 leukemia): > 71.2 µM
- TGI (MOLT-4 leukemia): > 100 µM
- GI50 (SK-MEL-5 melanoma): > 100 µM
- TGI (SK-MEL-5 melanoma): > 100 µM
- GI50 (T-47D breast): 35.8 µM
- TGI (T-47D breast): > 100 µM
- GI50 (ACHN renal): > 69.3 µM
- TGI (ACHN renal): > 100 µM
- GI50 (MDA-MB-435): > 75.6 µM
- TGI (MDA-MB-435): > 100 µM
- GI50 (LOX IMVI melanoma): 44.5 µM
- TGI (LOX IMVI melanoma): > 100 µM
- GI50 (NCI-H23 lung): 76.1 µM
- TGI (NCI-H23 lung): > 100 µM
- GI50 (NCI-H522 lung): 6.06 µM
- TGI (NCI-H522 lung): 14.6 µM
- GI50 (SN12C renal): > 75.9 µM
- TGI (SN12C renal): > 100 µM
- GI50 (A498 renal): > 78.7 µM
- TGI (A498 renal): > 100 µM
- GI50 (UACC-257 melanoma): > 80.4 µM
- TGI (UACC-257 melanoma): > 100 µM
- GI50 (HCT-15 colon): > 77.3 µM
- TGI (HCT-15 colon): > 100 µM
- GI50 (HOP-92 NSCLC): > 70.6 µM
- TGI (HOP-92 NSCLC): > 100 µM
- GI50 (RXF 393 renal): > 84.8 µM
- TGI (RXF 393 renal): > 100 µM
- GI50 (U251 CNS): 45.3 µM
- TGI (U251 CNS): > 100 µM
- GI50 (BT-549 breast): > 100 µM
- TGI (BT-549 breast): > 100 µM
- GI50 (SNB-75 CNS): > 100 µM
- TGI (SNB-75 CNS): > 100 µM
- GI50 (COLO 205 colon): > 100 µM
- TGI (COLO 205 colon): > 100 µM
- GI50 (HL-60(TB) leukemia): 29.9 µM
- TGI (HL-60(TB) leukemia): > 95.7 µM
- GI50 (NCI-H226 lung): > 100 µM
- TGI (NCI-H226 lung): > 100 µM
- GI50 (NCI-H460 lung): > 100 µM
- TGI (NCI-H460 lung): > 100 µM
- GI50 (MCF7 breast): > 80.5 µM
- TGI (MCF7 breast): > 100 µM
- GI50 (SK-MEL-28 melanoma): 98.7 µM
- TGI (SK-MEL-28 melanoma): > 100 µM
- GI50 (IGROV1 ovarian): > 100 µM
- TGI (IGROV1 ovarian): > 100 µM
- GI50 (OVCAR-3 ovarian): 55 µM
- TGI (OVCAR-3 ovarian): > 100 µM
- GI50 (SR leukemia): 32.8 µM
- TGI (SR leukemia): > 100 µM
- GI50 (KM12 colon): > 100 µM
- TGI (KM12 colon): > 100 µM
- GI50 (SF-539 CNS): > 100 µM
- TGI (SF-539 CNS): > 100 µM
- GI50 (EKVX NSCLC): 27.1 µM
- TGI (EKVX NSCLC): > 65 µM
- GI50 (CCRF-CEM leukemia): > 63.7 µM
- TGI (CCRF-CEM leukemia): > 100 µM
- GI50 (PC-3 prostate): > 100 µM
- TGI (PC-3 prostate): > 100 µM
- GI50 (M14 melanoma): > 86 µM
- TGI (M14 melanoma): > 100 µM
- GI50 (RPMI-8226 leukemia): 50.1 µM
- TGI (RPMI-8226 leukemia): > 100 µM
- GI50 (NCI/ADR-RES ovarian): > 100 µM
- TGI (NCI/ADR-RES ovarian): > 100 µM
- GI50 (SK-MEL-2 melanoma): > 100 µM
- TGI (SK-MEL-2 melanoma): > 100 µM
